According to patent US7351744B2, “Naphthalene derivatives as termite repellents and toxicants” (Board of Supervisors of Louisiana State University and …, priority 2003, dated 2008):

Key:
[1] = tested on: Formosan subterranean termites; conditions: other tested naturally occurring compounds; cited from earlier work
[2] = Longevity and volatility of the eleven chemicals; assay type: physicochemical; conditions: among the eleven chemicals tested
[3] = tested on: termites; experiment: Naphthalene-related compounds, choice of treated or untreated food or sand; assay type: in vivo; conditions: no repellency up to this concentration; data not shown
Method: When termites were given a choice of treated or untreated food or sand, all four chemicals were repellents at concentrations of 40 μg/cm^2 treated filter paper or 100 mg/kg treated sand. […] Methoxynaphthalenes were more volatile than acetonaphthones and could spread more effectively into the untreated chambers. […] (Data not shown)

C=C(C)[C@@H]1CCC2=CC(=O)C[C@@H](C)[C@]2(C)C1 [nootkatone]
concentration inhibiting tunneling and feeding behaviors [1]: 100 mg/kg

CC(=O)c1cccc2ccccc12 [1′-acetonaphthone]
longevity [2]: highest longevity
volatility [2]: lowest volatility

c1ccc2ccccc2c1 [Napthalene, naphthalene]
concentration showing repellency [3]: > 500 μg/cm^2

C/C=C(\C)C(=O)O[C@H]1C[C@@H](OC(C)=O)[C@@]2(C(=O)OC)CO[C@H]3[C@@H](O)[C@@](C)([C@]45O[C@@]4(C)[C@H]4C[C@@H]5O[C@@H]5OC=C[C@@]54O)[C@H]4[C@]1(CO[C@]4(O)C(=O)OC)[C@@H]32 [azadirachtin]
concentration inhibiting tunneling and feeding behaviors [1]: 500 mg/kg
